{
  "source": "patent US7189851B2",
  "about": "“Condensed heterocyclic compounds as calcitonin agonists” (SmithKline Beecham Corporation, priority 2002, dated 2007)",
  "note": "pEC50: −log10 of the molar value.",
  "data": [
    {"target": "T1, human calcitonin-2 receptor (hCT2R) (Homo sapiens, UniProt P30988)", "T1 construct": "expressed in transfected cells; host or cells: Chinese hamster ovary (CHO) cells co-transfected with a 6CRE-luciferase reporter; receptor cDNA cloned from the MCF7 cell line", "T1 sequence (P30988 25-474)": "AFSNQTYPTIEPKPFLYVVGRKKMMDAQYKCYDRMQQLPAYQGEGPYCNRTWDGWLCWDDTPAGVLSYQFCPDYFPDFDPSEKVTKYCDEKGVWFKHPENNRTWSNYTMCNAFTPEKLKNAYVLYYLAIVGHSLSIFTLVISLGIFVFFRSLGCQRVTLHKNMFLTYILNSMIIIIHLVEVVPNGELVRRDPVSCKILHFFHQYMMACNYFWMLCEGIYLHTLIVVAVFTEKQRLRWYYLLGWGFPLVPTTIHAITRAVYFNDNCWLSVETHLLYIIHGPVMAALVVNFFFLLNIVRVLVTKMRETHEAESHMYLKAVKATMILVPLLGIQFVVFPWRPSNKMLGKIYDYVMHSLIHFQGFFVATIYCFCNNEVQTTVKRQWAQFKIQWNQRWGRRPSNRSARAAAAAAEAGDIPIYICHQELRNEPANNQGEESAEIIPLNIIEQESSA", "assay": "HCT2R CRE-luc reporter assay", "assay_type": "cell-based", "settings": "agonist activity; CHO-6CRE-luciferase cells co-transfected with hCT2R", "values": [
      {"smiles": "CCOC(=O)c1c(Cc2ccc(F)cc2)nc2c(c1-c1ncc(C(=O)N[C@@H]3CCc4ccccc43)s1)C(=O)N1CCC[C@@H]21", "note": "[Example 19, Ethyl (9aS)-4-(5-{[(1R)-2,3-dihydro-1H-inden-1-ylamino]carbonyl}-1,3-thiazol-2-yl)-2-(4-fluorobenzyl)-5-oxo-7,8,9,9a-tetrahydro-5H-pyrido[2,3-a]pyrrolizine-3-carboxylate]", "pEC50": "≥ 8.00"},
      {"smiles": "CCOC(=O)c1c(CCc2ccc(C(F)(F)F)cc2)nc2c(c1-c1ccc(C(=O)NCCCn3ccnc3)cc1)C(=O)N1CCC[C@@H]21", "note": "[Example 41, Ethyl (9aS)-4-[4-({[3-(1H-imidazol-1-yl)propyl]amino}carbonyl)phenyl]-5-oxo-2-{2-[4-(trifluoromethyl)phenyl]ethyl}-7,8,9,9a-tetrahydro-5H-pyrido[2,3-α]pyrrolizine-3-carboxylate]", "pEC50": "6.00 to 7.00"},
      {"smiles": "CCOC(=O)c1c(Cc2ccc(F)cc2F)nc2c(c1-c1cnc(C(=O)N[C@@H]3CCc4ccccc43)cn1)C(=O)N1CCC[C@@H]21", "note": "[Example 22, Ethyl(9aS)-2-(2,4-difluorobenzyl)-4-(5-{[(1R)-2,3-dihydro-1H-inden-1-ylamino]carbonyl}-2-pyrazinyl)-5-oxo-7,8,9,9a-tetrahydro-5H-pyrido[2,3-a]pyrrolizine-3-carboxylate]", "pEC50": "7.00 to 8.00"},
      {"smiles": "CCOC(=O)c1c(CCc2ccc(C(F)(F)F)cc2)nc2c(c1-c1ccc(C(=O)NCc3ccco3)cc1)C(=O)N1CS(=O)(=O)C[C@@H]21", "note": "[Example 35, Ethyl (9aR)-4-(4-{[(2-furylmethyl)amino]carbonyl}phenyl)-5-oxo-2-{2-[4-(trifluoromethyl)phenyl]ethyl}-9,9a-dihydro-5H-[1,3]thiazolo[3′,4′:1,2]pyrrolo[3,4-b]pyridine-3-carboxylate 8,8-dioxide]", "pEC50": "7.00 to 8.00"},
      {"smiles": "CCOC(=O)c1c(CCCC(C)C)nc2c(c1-c1ccc(C(=O)N[C@@H]3CCc4ccccc43)cc1)C(=O)N1CCC[C@@H]21", "note": "[Example 43, Ethyl (9aS)-4-(4-{[(1R)-2,3-dihydro-1H-inden-1-ylamino]carbonyl}phenyl)-2-(4-methylpentyl)-5-oxo-7,8,9,9a-tetrahydro-5H-pyrido[2,3-α]pyrrolizine-3-carboxylate]", "pEC50": "≥ 8.00"},
      {"smiles": "O=C(NC1CCc2ccccc21)c1ccc(-c2c(NC(=O)C(F)(F)F)c(Cc3ccc(F)cc3F)nc3c2C(=O)N2CCCC32)cc1", "note": "[Example 23, 4-{(9aS)-2-(2,4-difluorobenzyl)-5-oxo-3-[(trifluoroacetyl)amino]-7,8,9,9a-tetrahydro-5H-pyrido[2,3-α]pyrrolizin-4-yl}-N-[(1R)-2,3-dihydro-1H-inden-1-yl]benzamide]", "pEC50": "7.00 to 8.00"},
      {"smiles": "CCOC(=O)C1=C(CCc2ccc(C(F)(F)F)cc2)Nc2c(c(=O)n3n2CCC3)C1c1ccc(C(=O)N[C@@H]2CCc3ccccc32)cc1", "note": "(stereo partly drawn) [Example 61, Ethyl 4-(4-{[(1R)-2,3-dihydro-1H-inden-1-ylamino]carbonyl}phenyl)-5-oxo-2-{2-[4-(trifluoromethyl)phenyl]ethyl}-1,5,8,9-tetrahydro-4H,7H-pyrazolo[1′,2′:1,2]pyrazolo[3,4-b]pyridine-3-carboxylate]", "pEC50": "7.00 to 8.00"},
      {"smiles": "CCOC(=O)c1c(Cc2ccc(F)cc2F)nc2c(c1-c1ccc(C(=O)NN3CCc4ccccc43)cc1)C(=O)N1CCC[C@@H]21", "note": "[Example 45, Ethyl (9aS)-2-(2,4-difluorobenzyl)-4-{4-[(2,3-dihydro-1H-indol-1-ylamino)carbonyl]phenyl}-5-oxo-7,8,9,9a-tetrahydro-5H-pyrido[2,3-α]pyrrolizine-3-carboxylate]", "pEC50": "7.00 to 8.00"},
      {"smiles": "CCOC(=O)c1c(CCc2ccc(F)cc2)nc2c(c1-c1ccc(C(=O)N[C@@H]3CCc4ccccc43)cc1[N+](=O)[O-])C(=O)N1CCC[C@@H]21", "note": "[Example 53, Ethyl (9aS)-4-(4-{[(1R)-2,3-dihydro-1H-inden-1-ylamino]carbonyl}-2-nitrophenyl)-2-[2-(4-fluorophenyl)ethyl]-5-oxo-7,8,9,9a-tetrahydro-5H-pyrido[2,3-α]pyrrolizine-3-carboxylate]", "pEC50": "7.00 to 8.00"}
    ]}
  ]
}
